According to PubChem BioAssay AID1552 (Sanford-Burnham Center for Chemical Genomics, 2009):
Activity calls are given as the source filed them. No rule for the calls is given here.

molecular target: Ubiquitin-conjugating enzyme E2 N (Homo sapiens) (UniProt P61088); assay: NMR detection of UBE2N ligand binding – biophysical, purified protein (AID 1552); settings: NMR binding to purified UBE2N
Sequence (P61088 whole entry, looked up): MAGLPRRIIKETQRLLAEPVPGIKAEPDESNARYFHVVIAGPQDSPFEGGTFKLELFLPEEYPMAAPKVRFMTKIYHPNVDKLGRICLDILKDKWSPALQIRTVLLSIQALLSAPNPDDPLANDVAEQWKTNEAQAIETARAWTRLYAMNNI

Compound | Kd
CNC(=S)NCCN1CCOCC1 | > 4 mM (inactive)
COc1cccc(N2CCN(C(=O)c3cccnc3)CC2)c1 | > 4 mM (inactive)
CCC(CO)NC(=O)c1snnc1C (stereo not drawn) | > 4 mM (inactive)
C/C(N)=C/C(=O)N1CCCCC1 | > 4 mM (inactive)
C[C@@H](N)[C@@H](O)c1ccccc1 | > 4 mM (inactive)
CC(=O)Nc1ccc(S(=O)(=O)NCC2CCCO2)cc1 (stereo not drawn) | > 4 mM (inactive)
Cc1ccc2[nH]cc(CCN)c2c1 | > 4 mM (inactive)
Cc1cc(C)n(CC(=O)NC2CCCCC2)n1 | > 4 mM (inactive)
c1csc(-c2nnc3ccccn23)c1 | > 4 mM (inactive)
COn1c(=O)c(C)[n+]([O-])c2ccccc21 | > 4 mM (inactive)
CC(C)=CCc1c2c(c3occ(-c4ccc(O)c(O)c4)c(=O)c3c1O)C=CC(C)(C)O2 | > 4 mM (inactive)
CC(C)(C)c1cc(CN)c(C(=O)O)o1 | > 4 mM (inactive)
COC(=O)CSc1nc(N)cc(=O)[nH]1 | > 4 mM (inactive)
Cc1ccc(N2C(=O)CC(Sc3ncn[nH]3)C2=O)cc1 (stereo not drawn) | > 4 mM (inactive)
Nc1ncnc2c1ncn2C1O[C@H](COP(=O)(O)O)[C@@H](O)[C@H]1O (stereo partly drawn) | > 4 mM (inactive)
Clc1ccc(-n2ccnc2)nn1 | > 4 mM (inactive)
COC(=O)Nc1nc2c(s1)CCCC2 | > 4 mM (inactive)
O=C1C2CCCCC2C(=O)N1Cc1cccnc1 (stereo not drawn) | > 4 mM (inactive)
CNc1nc(OC)nc(N2CCOCC2)n1 | > 4 mM (inactive)
COc1cc2nc(-c3cccs3)oc(=O)c2cc1OC | > 4 mM (inactive)

Compound | Kd
O=C(/C=C/c1ccccc1)NC1CCS(=O)(=O)C1 (stereo not drawn) | > 4 mM (inactive)
Cc1nnc(N2CCc3ccccc3C2)[nH]c1=O | > 4 mM (inactive)
Cc1ccc(-n2ncc(C#N)c2/N=C/N(C)C)cc1 | > 4 mM (inactive)
O=C(CSc1cccc2cccnc12)N1CCCC1 | > 4 mM (inactive)
Cc1[nH]c2ccccc2c1CN(C)C | > 4 mM (inactive)
CCn1c(=O)cc(N2CCC3(CC2)OCCO3)[nH]c1=O | > 4 mM (inactive)
O=C(Nc1ccccc1)Nc1ccccc1 | > 4 mM (inactive)
O=C1CSC(=Nc2ccc(O)cc2)N1 | > 4 mM (inactive)
Cc1cc(O)cc(=O)n1CCCC(=O)O | > 4 mM (inactive)
NCc1ccc(-c2cccs2)cc1 | > 4 mM (inactive)
CCOC(=O)c1cnn2ccccc12 | > 4 mM (inactive)
Cc1cc(C)c(-c2cc(C(F)(F)F)no2)c(=O)[nH]1 | > 4 mM (inactive)
CNC(Cc1c[nH]c2ccccc12)C(=O)O (stereo not drawn) | > 4 mM (inactive)
Cc1cc(=O)[nH]c(N2CCN(Cc3ccccc3)CC2)n1 | > 4 mM (inactive)
C=C(C)[C@H]1Cc2c(ccc3c2O[C@@H]2COc4cc(OC)c(OC)cc4[C@@H]2C3=O)O1 | > 4 mM (inactive)
Cn1c(SCC(N)=O)nc2c1c(=O)[nH]c(=O)n2C | > 4 mM (inactive)
O=C(O)C1CSC(c2cccnc2)N1 (stereo not drawn) | > 4 mM (inactive)
C=CCn1c(N)c(C(=O)N2CCOCC2)sc1=S | > 4 mM (inactive)
Cc1cccc(N2C(=O)CCC2=O)n1 | > 4 mM (inactive)
COC(=O)[C@@H]1OC(=O)C2OC23[C@@]1(C)CCC1[C@]2(C)C(C[C@@H](O)[C@]13C)C(C)(C)[C@H](OC(C)=O)C[C@@H]2OC(C)=O (stereo partly drawn) | > 4 mM (inactive)

Compound | Kd
O=C(NCc1ccco1)c1cccc(F)c1 | > 4 mM (inactive)
COc1cc2cc[n+]3cc4c(OC)c(OC)ccc4cc3c2cc1OC | > 4 mM (inactive)
CCOC12NC(=O)CC(=O)N1C(c1ccccc1)=CS2 (stereo not drawn) | > 4 mM (inactive)
CC(C)(C)CC(=O)NNC(=O)c1cnccn1 | > 4 mM (inactive)
CC(=O)O[C@@H]1CC2C(C)(C)C(=O)C=C[C@]2(C)C2CC[C@]3(C)C(=CC(=O)O[C@H]3c3ccoc3)[C@@]21C (stereo partly drawn) | > 4 mM (inactive)
COC(=O)C[C@H]1C(C)(C)C(OC(C)=O)[C@]2(O)C=C3C(CC[C@]4(C)C3CC(=O)O[C@H]4c3ccoc3)C1(C)C2=O (stereo partly drawn) | > 4 mM (inactive)
O=C(CC1CCCCC1)N1CCN(c2ccccn2)CC1 | > 4 mM (inactive)
c1ccc(SCc2nc(-c3cccnc3)no2)cc1 | > 4 mM (inactive)
Cc1ccc(SCc2cc(=O)n3[nH]c(C)nc3n2)cc1 | > 4 mM (inactive)
CSc1ccccc1NC(=O)c1cccnc1 | > 4 mM (inactive)
Cc1cc(C)n2nc(Cc3ccccc3)nc2n1 | > 4 mM (inactive)
COc1ccc(-c2coc3cc(O)ccc3c2=O)cc1 | > 4 mM (inactive)
O=[n+]1c2c(n([O-])c3ccccc31)CCCC2 | > 4 mM (inactive)
COc1ccccc1NC(=O)c1ccc(Br)o1 | > 4 mM (inactive)
O=C1CSC(=Nc2cccc(C(=O)O)c2)N1 | > 4 mM (inactive)
O=C1CCC(=O)N1c1ccc(F)cc1 | > 4 mM (inactive)
Cc1cccc(C)c1NC(=O)/C=C/C(=O)O | > 4 mM (inactive)
Cc1nnc(NCc2cccnc2)[nH]c1=O | > 4 mM (inactive)
